Laboratory results as given in patent US6972286B2, “Oxazolidinones having a benzannulated 6- or 7-membered heterocycle” (Pharmacia and Upjohn Company, priority 2000, dated 2005).
≈ marks a conversion by molar mass, not a printed value.

Test system: Streptococcus pneumoniae
Assay: Minimum inhibitory concentration (MIC) by agar dilution
Format: cell-based
Conditions: in vitro, agar dilution (NCCLS 1993), Streptococcus pneumoniae strain SPNE 9912; read-out: Antibacterial Activity Minimum Inhibitory Concentration SPNE 9912
From the text: The oxazolidinone antibacterial agents of this invention have useful activity against a variety of organisms. The in vitro activity of compounds of this invention can be assessed by standard testing procedures such as the determination of minimum inhibitory concentration (MIC) by agar dilution as described in “Approved Standard. Methods for Dilution Antimicrobial Susceptibility Tests for Bacteria That Grow Aerobically”, 3rd. ed., published 1993 by the National Committee for Clinical Laboratory Standards, Villanova, Pa. USA.

Going from COC(=O)N1CCc2cc(N3C[C@H](CNC(C)=O)OC3=O)ccc2C1 [Example 1, (−)-Methyl 6-[(5S)-5-[(acetylamino)methyl]-2-oxo-3-oxazolidinyl]-3,4-dihydro-2(1H)-isoquinolinecarboxylate] to COC(=O)N1CCc2cc(N3C[C@H](CNC(C)=S)OC3=O)ccc2C1 [Example 5, (+)-Methyl 6-[(5S)-5-[(ethanethioylamino)methyl]-2-oxo-3-oxazolidinyl]-3,4-dihydro-2(1H)-isoquinolinecarboxylate], the MIC falls from 1 µg/mL (≈ 2.88 µM) to < 0.5 µg/mL.

Going from CC(=O)NC[C@H]1CN(c2ccc3c(c2)CCN(C=O)C3)C(=O)O1 [Example 2, (−)-N-[[(5S)-3-[2-Formyl-1,2,3,4-tetrahydro-6-isoquinolinyl]-2-oxo-5-oxazolidinyl]methyl]acetamide] to CC(=O)NC[C@H]1CN(c2ccc3c(c2)CCCN(C=O)C3)C(=O)O1 [Example 36, N-{[(5S)-3-(2-Formyl-1,3,4,5-tetrahydro-1H-2-benzazepin-7-yl)-2-oxo-1,3-oxazolidin-5-yl]methyl}acetamide], the MIC falls from 1 µg/mL (≈ 3.15 µM) to < 0.5 µg/mL.

CC(=O)NC[C@H]1CN(c2ccc3c(c2)CCN(C(=O)COC(C)=O)C3)C(=O)O1 [Example 3, (−)-N-[[(5S)-3-[2-[(Acetyloxy)acetyl]-1,2,3,4-tetrahydro-6-isoquinolinyl]-2-oxo-5-oxazolidinyl]methyl]acetamide] and CC(=O)NC[C@H]1CN(c2ccc3c(c2)CCN(C(=O)CO)C3)C(=O)O1 [Example 4, (−)-N-[[(5S)-3-[2-[(Hydroxy)acetyl]-1,2,3,4-tetrahydro-6-isoquinolinyl]-2-oxo-5-oxazolidinyl]methyl]acetamide] are the same in MIC: 1 µg/mL (≈ 2.57 µM) for the first, 1 µg/mL (≈ 2.88 µM) for the second.

First: CC(=S)NC[C@H]1CN(c2ccc3c(c2)CCN(C=O)C3)C(=O)O1 [Example 6, (+)-N-[[(5S)-3-[2-Formyl-1,2,3,4-tetrahydro-6-isoquinolinyl]-2-oxo-5-oxazolidinyl]methyl]ethanethioamide]
Second: CC(=S)NC[C@H]1CN(c2ccc3c(c2)CN(C=O)CC3)C(=O)O1 [Example 18, (+)-N-[[(5S)-3-[2-Formyl-1,2,3,4-tetrahydro-7-isoquinolinyl]-2-oxo-5-oxazolidinyl]methyl]ethanethioamide]
The MIC of the first is lower: < 0.5 µg/mL for the first, 1 µg/mL (≈ 3 µM) for the second.

First: CC(=S)NC[C@H]1CN(c2ccc3c(c2)CCN(C(=O)CO)C3)C(=O)O1 [Example 7, (+)-N-[[(5S)-3-[2-[(Hydroxy)acetyl]-1,2,3,4-tetrahydro-6-isoquinolinyl]-2-oxo-5-oxazolidinyl]methyl]ethanethioamide]
Second: CC(=S)NC[C@H]1CN(c2ccc3c(c2)CN(C(=O)CO)CC3)C(=O)O1 [Example 19, (+)-N-[[(5S)-3-[2-[(Hydroxy)acetyl]-1,2,3,4-tetrahydro-7-isoquinolinyl]-2-oxo-5-oxazolidinyl]methyl]ethanethioamide]
The MIC of the first is lower: < 0.5 µg/mL for the first, 2 µg/mL (≈ 5.5 µM) for the second.

Going from CC(=O)NC[C@H]1CN(c2ccc3c(c2)CCOC3)C(=O)O1 [Example 8, (−)-N-[[(5S)-3-(3,4-Dihydro-1H-2-benzopyran-6-yl)-2-oxo-5-oxazolidinyl]methyl]acetamide] to CC(=S)NC[C@H]1CN(c2ccc3c(c2)CCOC3)C(=O)O1 [Example 9, (+)-N-[[(5S)-3-(3,4-Dihydro-1H-2-benzopyran-6-yl)-2-oxo-5-oxazolidinyl]methyl]ethanethioamide], the MIC falls from 4 µg/mL (≈ 13.8 µM) to 1 µg/mL (≈ 3.26 µM) (4-fold).

Going from CC(=O)NC[C@H]1CN(c2ccc3c(c2)CSCC3)C(=O)O1 [Example 14, (−)-N-[[(5S)-3-(3,4-Dihydro-1H-2-benzothiopyran-7-yl)-2-oxo-5-oxazolidinyl]methyl]acetamide] to CC(=S)NC[C@H]1CN(c2ccc3c(c2)CSCC3)C(=O)O1 [Example 15, (+)-N-[[(5S)-3-(3,4-Dihydro-1H-2-benzothiopyran-7-yl)-2-oxo-5-oxazolidinyl]methyl]ethanethioamide], the MIC falls from 0.5 µg/mL (≈ 1.63 µM) to 0.125 µg/mL (≈ 0.388 µM) (4-fold).

Going from CC(=S)NC[C@H]1CN(c2ccc3c(c2)CS(=O)(=O)CC3)C(=O)O1 [Example 16, (+)-N-[[(5S)-3-(3,4-Dihydro-2,2-dioxido-1H-2-benzothiopyran-7-yl)-2-oxo-5-oxazolidinyl]methyl]ethanethioamide] to CC(=S)NC[C@H]1CN(c2ccc3c(c2)CCN(C(=O)CO)CC3)C(=O)O1 [Example 41, N-{[(5S)-3-(3-Glycoloyl-1,2,4,5-tetrahydro-1H-3-benzazepin-7-yl)-2-oxo-1,3-oxazolidin-5-yl]methyl}ethanethioamide], the MIC falls from 1 µg/mL (≈ 2.82 µM) to 0.125 µg/mL (≈ 0.331 µM) (8-fold).

Compared with CC(=O)NC[C@H]1CN(c2ccc3c(c2)C[S+]([O-])CC3)C(=O)O1 (stereo partly drawn) [Example 17, N-[[(5S)-3-(3,4-Dihydro-2-oxido-1H-2-benzothiopyran-7-yl)-2-oxo-5-oxazolidinyl]methyl]acetamide], CC(=O)NC[C@H]1CN(c2ccc3c(c2)CCN(C=O)CC3)C(=O)O1 [Example 23, N-{[(5S)-3-(3-Formyl-1,2,4,5-tetrahydro-1H-3-benzazepin-7-yl)-2-oxo-1,3-oxazolidin-5-yl]methyl}acetamide] is lower in MIC: 2 µg/mL (≈ 6.2 µM) for the first, < 0.5 µg/mL for the second.

CC(=O)NC[C@H]1CN(c2ccc3c(c2)CCCCN3C=O)C(=O)O1 [Example 20, N-{[(5S)-3-(1-Formyl-2,3,4,5-tetrahydro-1H-1-benzazepin-7-yl)-2-oxo-1,3-oxazolidin-5-yl]methyl}acetamide] and CC(=S)NC[C@H]1CN(c2ccc3c(c2)CCCCN3C=O)C(=O)O1 [Example 21, N-{[(5S)-3-(1-Formyl-2,3,4,5-tetrahydro-1H-1-benzazepin-7-yl)-2-oxo-1,3-oxazolidin-5-yl]methyl}ethanethioamide] cannot be ordered by MIC: < 0.5 µg/mL for the first, < 0.5 µg/mL for the second.

First: CC(=O)NC[C@H]1CN(c2ccc3c(c2)CCN(C(=O)OCc2ccccc2)CC3)C(=O)O1 [Example 22]
Second: CC(=O)NC[C@H]1CN(c2ccc3c(c2)CCN(C(=O)Cc2ccccc2)CC3)C(=O)O1 [Example 30, N-[((5S)-3-{3-(Phenyl)acetyl-1,2,4,5-tetrahydro-1H-3-benzazepin-7-yl}-2-oxo-1,3-oxazolidin-5-yl)methyl]acetamide]
The MIC of the first is lower: < 0.5 µg/mL for the first, 1 µg/mL (≈ 2.37 µM) for the second.

Going from CC(=O)NC[C@H]1CN(c2ccc3c(c2)CCN(C(=O)CO)CC3)C(=O)O1 [Example 24, N-{[(55)-3-(3-Glycoloyl-1,2,4,5-tetrahydro-1H-3-benzazepin-7-yl)-2-oxo-1,3-oxazolidin-5-yl]methyl}acetamide] to CC(=O)NC[C@H]1CN(c2ccc3c(c2)CCN(C(C)=O)CC3)C(=O)O1 [Example 25, N-{[(5S)-3-(3-Acetyl-1,2,4,5-tetrahydro-1H-3-benzazepin-7-yl)-2-oxo-1,3-oxazolidin-5-yl]methyl}acetamide], the MIC rises from < 0.5 µg/mL to 1 µg/mL (≈ 2.9 µM).

Compared with COC(=O)N1CCc2ccc(N3C[C@H](CNC(C)=O)OC3=O)cc2CC1 [Example 26, Methyl 7-{(5S)-5-[(acetylamino)methyl]-2-oxo-1,3-oxazolidin-3-yl}-1,2,4,5-tetrahydro-3H-3-benzazepine-3-carboxylate], CC(=O)CCC(=O)N1CCc2ccc(N3C[C@H](CNC(C)=O)OC3=O)cc2CC1 [Example 34] is 2-fold higher in MIC: 1 µg/mL (≈ 2.77 µM) for the first, 2 µg/mL (≈ 4.98 µM) for the second.

Going from CC(=O)NC[C@H]1CN(c2ccc3c(c2)CCN(C(=O)c2ccccc2)CC3)C(=O)O1 [Example 27, N-{[(5S)-3-(3-Benzoyl-1,2,4,5-tetrahydro-1H-3-benzazepin-7-yl)-2-oxo-1,3-oxazolidin-5-yl]methyl}acetamide] to CC(=O)NC[C@H]1CN(c2ccc3c(c2)CCN(C(=O)Oc2ccccc2)CC3)C(=O)O1 [Example 29, Phenyl 7-{(5S)-5-[(acetylamino)methyl]-2-oxo-1,3-oxazolidin-3-yl}-1,2,4,5-tetrahydro-3H-3-benzazepine-3-carboxylate], the MIC rises from 1 µg/mL (≈ 2.45 µM) to 2 µg/mL (≈ 4.72 µM) (2-fold).

First: CC(=O)NC[C@H]1CN(c2ccc3c(c2)CCN(S(C)(=O)=O)CC3)C(=O)O1 [Example 28, N-({(5)-3-[3-(Methylsulfonyl)-1,2,4,5-tetrahydro-1H-3-benzazepin-7-yl]-2-oxo-1,3-oxazolidin-5-yl}methyl)acetamide]
Second: CC(=O)CCCC(=O)N1CCc2ccc(N3C[C@H](CNC(C)=O)OC3=O)cc2CC1 [Example 35, N-({(5S)-2-Oxo-3-[3-(5-oxohexanoyl)-1,2,4,5-tetrahydro-1H-3-benzazepin-7-yl]-1,3-oxazolidin-5-yl}methyl)acetamide]
The MIC of the first is 4-fold higher: 4 µg/mL (≈ 10.5 µM) for the first, 1 µg/mL (≈ 2.41 µM) for the second.

Going from CC(=O)NC[C@H]1CN(c2ccc3c(c2)CCN(C(=O)Cc2ccc(I)cc2)CC3)C(=O)O1 [Example 31, N-[((5S)-3-{3-[(4-Iodophenyl)acetyl]-1,2,4,5-tetrahydro-1H-3-benzazepin-7-yl}-2-oxo-1,3-oxazolidin-5-yl)methyl]acetamide] to CC(=O)NC[C@H]1CN(c2ccc3c(c2)CCN(C(=O)Cc2ccc(C(F)(F)F)cc2)CC3)C(=O)O1 [Example 33], the MIC rises from 1 µg/mL (≈ 1.83 µM) to 2 µg/mL (≈ 4.09 µM) (2-fold).

Going from CC(=O)NC[C@H]1CN(c2ccc3c(c2)CCN(C(=O)Cc2cccc(C(F)(F)F)c2)CC3)C(=O)O1 [Example 32] to CC(=O)NC[C@H]1CN(c2ccc3c(c2)CCCN(C(=O)Nc2ccccc2)C3)C(=O)O1 [Example 40, 7-{(5S)-5-[(Acetylamino)methyl]-2-oxo-1,3-oxazolidin-3-yl}-N-phenyl-1,3,4,5-tetrahydro-2H-2-benzazepine-2-carboxamide], the MIC falls from 2 µg/mL (≈ 4.09 µM) to 1 µg/mL (≈ 2.37 µM) (2-fold).

Going from CC(=O)NC[C@H]1CN(c2ccc3c(c2)CCCN(C(=O)CO)C3)C(=O)O1 [Example 37, N-{[(5S)-3-(2-Glycoloyl-1,3,4,5-tetrahydro-1H-3-benzazepin-7-yl)-2-oxo-1,3-oxazolidin-5-yl]methyl}acetamide] to CC(=O)NC[C@H]1CN(c2ccc3c(c2)CCCN(C(C)=O)C3)C(=O)O1 [Example 38, N-{[(5S)-3-(2-Acetyl-1,3,4,5-tetrahydro-1H-2-benzazepin-7-yl)-2-oxo-1,3-oxazolidin-5-yl]methyl}acetamide], the MIC rises from 1 µg/mL (≈ 2.77 µM) to 2 µg/mL (≈ 5.79 µM) (2-fold).

CC(=O)NC[C@H]1CN(c2ccc3c(c2)CCN(c2nnc(N)s2)CC3)C(=O)O1 [Example 42, N-({(5S)-3-[3-(5-Amino-1,3,4-thiadiazol-2-yl)-1,2,4,5-tetrahydro-1H-3-benzazepin-7-yl]-2-oxo-1,3-oxazolidin-5-yl}methyl)acetamide] showed an MIC of 0.5 µg/mL (≈ 1.24 µM).
